“Also recorded” adds a separate entry of the source.
What was measured:
[1] = system: HCT116; assay: Cytotoxic activity against wild-type HCT116; format: cell-based, human
Procedure: (§1) Cytotoxic Activity and Reversal of Multidrug Resistance. […] (Quesada, A. R.; et al. Br. J. Cancer 1996, 74, 677.) With exception of ningalin A, (Ningalin A, lamellarin O, lukianol A, and permethyl storniamide A: Boger, D. L.; et al. J. Am. Chem. Soc. 1999, 121, 54.) the biological evaluation of the ningalin family has not been explored. Consequently, ningalin B and a number of structurally related synthetic intermediates were tested in a L1210 cytotoxic assay, and the results are summarized in FIGS. 6 and 10. […] (Ningalin A, lamellarin O, lukianol A, and permethyl storniamide A: Boger, D. L.; et al. J. Am. Chem. Soc. 1999, 121, 54.)
(Quesada, A. R.; et al. Br. J. Cancer 1996, 74, 677.) P-gp is a 170 kDa plasma membrane glycoprotein encoded in humans by the MDR1 gene which exports drugs out of mammalian cells, lowering their intracellular concentration. (Patel, N. H.; et al. Invest. New Drugs 1994, 12, 1. Gottesman, M. M.; et al. Annu. Rev. Biochem. 1993, 62, 385.) Therefore, 7-14 were also tested against a wild-type human colon cancer cell line (HCT116) and two resistant HCT116 cell lines. The first resistant cell line (HCT116/VM46) embodies the MDR phenotype and overexpresses P-glycoprotein while the second cell line (HCT116/VP35) derives its resistance through underexpression of topoisomerase II. The examination of the latter cell line along with the wild-type HCT116 and their comparison with HCT116VM46 allows an accurate assessment of the MDR sensitivity as well as an assessment of one potential therapeutic target.

[2] = system: HCT116/VM46; assay: Reversal of multidrug resistance: resensitizing HCT116/VM46 to vinblastine and doxorubicin; format: cell-based, human; conditions: for resensitization of HCT116/VM46 compared with verapamil: vinblastine and doxorubicin
[3] = system: L1210; assay: L1210 cytotoxic assay; format: cell-based
Description: FIG. 6 illustrates a table with a comparison of the cytotoxic activity of ningalin B and some analogs with some commonly used compounds against three different cell lines.
as §1

[4] = molecular target: T1, Pgp-170 (Homo sapiens, UniProt P08183); assay: Inhibition of dye efflux (rhodamine 123) from HCT116/VM46; format: cell-based; conditions: 30 min incubation in rhodamine 123 in phosphate buffer solution
T1 construct: The first resistant cell line (HCT116/VM46) embodies the MDR phenotype and overexpresses P-glycoprotein; endogenous in cells; host or cells: HCT116/VM46 (drug-resistant human colon cancer cell line)
T1 sequence (P08183 whole entry): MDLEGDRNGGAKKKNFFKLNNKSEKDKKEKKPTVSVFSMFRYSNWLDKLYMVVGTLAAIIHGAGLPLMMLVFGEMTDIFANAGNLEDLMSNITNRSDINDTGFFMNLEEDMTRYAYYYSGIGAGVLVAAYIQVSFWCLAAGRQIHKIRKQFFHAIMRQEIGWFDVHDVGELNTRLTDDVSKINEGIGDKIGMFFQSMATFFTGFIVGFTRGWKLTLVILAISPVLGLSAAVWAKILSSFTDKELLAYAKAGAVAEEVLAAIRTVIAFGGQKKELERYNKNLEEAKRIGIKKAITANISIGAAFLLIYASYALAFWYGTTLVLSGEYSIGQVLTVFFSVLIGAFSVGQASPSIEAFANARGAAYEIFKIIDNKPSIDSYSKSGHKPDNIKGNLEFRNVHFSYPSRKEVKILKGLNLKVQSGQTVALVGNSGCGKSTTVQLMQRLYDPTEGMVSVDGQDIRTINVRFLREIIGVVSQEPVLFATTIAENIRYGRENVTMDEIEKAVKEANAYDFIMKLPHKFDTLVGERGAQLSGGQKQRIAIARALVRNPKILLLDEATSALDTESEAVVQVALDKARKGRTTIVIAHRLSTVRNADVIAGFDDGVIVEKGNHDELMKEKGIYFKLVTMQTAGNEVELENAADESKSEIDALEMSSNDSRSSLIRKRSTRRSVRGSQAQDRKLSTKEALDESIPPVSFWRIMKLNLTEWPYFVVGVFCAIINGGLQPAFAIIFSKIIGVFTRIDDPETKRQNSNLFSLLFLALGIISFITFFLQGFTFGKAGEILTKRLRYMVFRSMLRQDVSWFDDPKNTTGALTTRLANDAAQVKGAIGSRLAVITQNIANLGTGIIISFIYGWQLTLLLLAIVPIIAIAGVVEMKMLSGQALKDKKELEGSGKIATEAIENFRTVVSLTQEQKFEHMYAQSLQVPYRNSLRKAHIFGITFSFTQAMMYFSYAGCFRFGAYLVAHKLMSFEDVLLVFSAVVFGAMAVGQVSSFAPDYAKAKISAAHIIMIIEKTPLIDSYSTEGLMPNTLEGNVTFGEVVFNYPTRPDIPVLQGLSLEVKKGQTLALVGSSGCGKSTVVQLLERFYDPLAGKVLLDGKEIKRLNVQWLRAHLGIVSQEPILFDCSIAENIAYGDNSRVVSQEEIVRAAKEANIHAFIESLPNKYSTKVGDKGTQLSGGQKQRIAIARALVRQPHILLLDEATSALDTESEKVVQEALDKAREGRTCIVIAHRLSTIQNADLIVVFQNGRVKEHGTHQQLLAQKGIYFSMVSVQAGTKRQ
Procedure: FIG. 8 illustrates the inhibition of dye efflux (rhodamine 123) from the HCT116/VM46 cell line. Accumulation of rhodamine 123 in the HCT116/VM46 cell line after 30 min incubation in […] rhodamine in phosphate buffer solution (Quesada, A. R.; et al., Br. J. Cancer 1996, 74, 677).
Fundamentally more important, many of the agents were found capable of reversing MDR at noncytotoxic concentrations, resensitizing HCT116/VM46 to vinblastine and doxorubicin (FIGS. 7 and 11).

[5] = cytotoxic activity relative to ningalin B

Compound	inherent cytotoxic activity (cell line not given) [1]	ability to resensitize HCT116/VM46 to vinblastine and doxorubicin ([2]; agent at 1 μM)	resensitization of HCT116/VM46 compared with verapamil ([2]; agent at 1 μM)	MDR reversal in HCT116/VM46 ([2]; agent at 7.5 μM)	MDR reversal, resensitizing HCT116/VM46 to vinblastine and doxorubicin ([2]; concentration not given)	MDR reversal in HCT116/VM46 ([2]; agent at 1 μM)	fold less active against L1210 than ningalin B [3, 5]	fold less active against HCT116 than ningalin B [1, 5]	sensitivity of HCT116/VM46 towards vinblastine in presence of agent ([2]; concentration not given, vinblastine)	dye efflux (rhodamine 123) from HCT116/VM46 [4]	cytotoxic activity against L1210 ([3]; L1210 cell line)	cytotoxic activity against HCT116 ([1]; wild-type human colon cancer cell line HCT116)
COCOc1cc(OC)c(OC)cc1-c1c(-c2ccc(OC)c(OC)c2)c(C(=O)OC)n(CCc2ccc(OC)c(OC)c2)c1C(=O)OC [compound 10, Dimethyl 3-(4,5-Dimethoxy-2-(methoxymethoxy)phenyl)-4-(3,4-dimethoxyphenyl)-1-[2-(3,4-dimethoxyphenyl)ethyl]pyrrole-2,5-dicarboxylate]	lacking inherent cytotoxic activity	able to resensitize	more effectively than verapamil	complete MDR reversal	potently reverse MDR							
COC(=O)c1c(-c2ccc(OC)c(OC)c2)c2c3cc(OC)c(OC)cc3oc(=O)c2n1CCc1ccc(OC)c(OC)c1 [compound 11, Methyl 7,8-Dimethoxy-3-(2-(3,4-dimethoxyphenyl)ethyl)-1-(3,4-dimethoxyphenyl)-[1]-benzopyrano[3,4-b]pyrrol-4(3B)-one-2-carboxylate]		able to resensitize	more effectively than verapamil	hypersensitive to vinblastine	potently reverse MDR	complete MDR reversal						
COc1ccc(CCn2cc(-c3ccc(OC)c(OC)c3)c3c4cc(OC)c(OC)cc4oc(=O)c32)cc1OC [compound 13, Hexamethyl Ningalin B]		able to resensitize	more effectively than verapamil	hypersensitive to vinblastine	potently reverse MDR	complete MDR reversal	5 fold	2.5 fold				
COc1ccc(-c2c3n(c4c(=O)oc5cc(OC)c(OC)cc5c24)CCc2cc(OC)c(OC)cc2C3=O)cc1OC [compound 14, 9,10-Dihydro-12,13-dimethoxy-1-(3′,4′-dimethoxyphenyl)-3,4-dimethoxy-[4,3-d]-[1]-benzopyrano-15H-benzazepino[3,2-a]-[3]-pyrrol-7,15(18H)-dione]	lacking inherent cytotoxic activity	able to resensitize	more effectively than verapamil		potently reverse MDR; also recorded: most potent MDR reversal agent identified in this series	hypersensitivity of HCT116/VM46 to vinblastine			hypersensitivity towards vinblastine	inhibited dye efflux		
COc1ccc(CCn2c(C(=O)N(C)C)c(-c3ccc(OC)c(OC)c3)c3c4cc(OC)c(OC)cc4oc(=O)c32)cc1OC [compound 15, N,N-Dimethyl 7,8-Dimethoxy-3-(2-(3,4-dimethoxyphenyl)ethyl)-1-(3,4-dimethoxyphenyl)-[1]-benzopyrano[3,4-b]pyrrol-4(3H)-one-2-carboxamide]	lacking inherent cytotoxic activity				potently reverse MDR							
O=c1oc2cc(O)c(O)cc2c2c(-c3ccc(O)c(O)c3)cn(CCc3ccc(O)c(O)c3)c12 [ningalin B, Ningalin B]					not						only moderately active	only moderately active
COc1ccc(CCN(C)CCCC(C#N)(c2ccc(OC)c(OC)c2)C(C)C)cc1OC (stereo not drawn) [verapamil, reference compound]				complete reversal								
